Read-outs that look alike come from different tables or passages of the source. Marks after values point to notes of the source that are not given here.
Target: T7 RNA polymerase (Escherichia phage T7, UniProt P00573)
Details: [α-32P]ATP, natural NTP 1 mM; for Composition of nucleotide incorporated as 5′ neighbor of A: Gp: theoretical [2]
[1] = Entry 1, template temp35Ds-3, Pa 1 mM, theoretical [0]
[2] = Entry 1, template temp35Ds-3, Pa 1 mM, theoretical [1]
[3] = Entry 2, template temp35Ds-3, Pa 3 mM, theoretical [0]
[4] = Entry 2, template temp35Ds-3, Pa 3 mM, theoretical [1]
[5] = Entry 3, template temp35A-3, Pa 1 mM, theoretical [0]
[6] = Entry 3, template temp35A-3, Pa 1 mM, theoretical [1]
[7] = Entry 4, template temp35A-3, Pa 3 mM, theoretical [0]
[8] = Entry 4, template temp35A-3, Pa 3 mM, theoretical [1]
[9] = Entry 5, template temp35G-3, Pa 1 mM, theoretical [0]
[10] = Entry 5, template temp35G-3, Pa 1 mM, theoretical [1]
[11] = Entry 6, template temp35G-3, Pa 3 mM, theoretical [0]
[12] = Entry 6, template temp35G-3, Pa 3 mM, theoretical [1]

T7 RNA polymerase, sequence (P00573 whole entry): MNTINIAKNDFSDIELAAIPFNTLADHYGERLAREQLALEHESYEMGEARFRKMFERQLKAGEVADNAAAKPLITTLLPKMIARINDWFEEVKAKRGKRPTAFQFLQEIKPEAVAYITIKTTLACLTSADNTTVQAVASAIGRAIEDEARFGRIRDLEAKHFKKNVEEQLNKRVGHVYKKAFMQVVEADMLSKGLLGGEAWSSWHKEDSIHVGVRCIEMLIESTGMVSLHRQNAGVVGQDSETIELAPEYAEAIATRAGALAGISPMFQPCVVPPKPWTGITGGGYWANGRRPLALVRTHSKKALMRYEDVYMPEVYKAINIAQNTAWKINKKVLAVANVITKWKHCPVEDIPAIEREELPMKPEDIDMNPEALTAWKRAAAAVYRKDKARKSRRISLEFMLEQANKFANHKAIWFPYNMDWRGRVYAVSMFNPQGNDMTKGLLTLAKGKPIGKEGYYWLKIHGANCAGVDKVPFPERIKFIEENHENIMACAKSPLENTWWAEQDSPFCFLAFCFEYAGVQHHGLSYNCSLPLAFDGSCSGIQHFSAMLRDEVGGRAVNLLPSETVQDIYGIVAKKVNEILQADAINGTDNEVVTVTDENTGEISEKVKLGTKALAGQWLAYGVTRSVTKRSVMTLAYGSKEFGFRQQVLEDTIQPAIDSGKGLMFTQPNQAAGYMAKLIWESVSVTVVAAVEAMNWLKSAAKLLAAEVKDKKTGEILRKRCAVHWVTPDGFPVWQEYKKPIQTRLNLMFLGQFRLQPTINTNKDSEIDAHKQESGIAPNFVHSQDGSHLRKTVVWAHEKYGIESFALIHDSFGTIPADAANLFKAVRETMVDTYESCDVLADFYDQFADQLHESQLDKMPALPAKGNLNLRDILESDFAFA

Compound: O=Cc1cccn1[C@@H]1O[C@H](COP(=O)(O)OP(=O)(O)OP(=O)(O)O)[C@@H](O)[C@H]1O [PaTP, 1-(β-D-Ribofuranosyl)pyrrole-2-carbaldehyde 5′-triphosphate]
- Composition of nucleotide incorporated as 5′ neighbor of A: Cp [1]: 0.01 [0]
- Composition of nucleotide incorporated as 5′ neighbor of A: Up [1]: 0.02 [0]
- Composition of nucleotide incorporated as 5′ neighbor of A: Ap [2]: 1.03^c [1]^d
- Composition of nucleotide incorporated as 5′ neighbor of A: Np (Pap) [2]: 0.97 [1]
- Composition of nucleotide incorporated as 5′ neighbor of A: Gp (Entry 1, template temp35Ds-3, Pa 1 mM): 1.97 [2]
- Composition of nucleotide incorporated as 5′ neighbor of A: Cp [3]: 0.01 [0]
- Composition of nucleotide incorporated as 5′ neighbor of A: Up [3]: 0.01 [0]
- Composition of nucleotide incorporated as 5′ neighbor of A: Ap [4]: 1.01 [1]
- Composition of nucleotide incorporated as 5′ neighbor of A: Np (Pap) [4]: 1.00 [1]
- Composition of nucleotide incorporated as 5′ neighbor of A: Gp (Entry 2, template temp35Ds-3, Pa 3 mM): 1.96 [2]
- Composition of nucleotide incorporated as 5′ neighbor of A: Cp [5]: n.d.^f [0]
- Composition of nucleotide incorporated as 5′ neighbor of A: Np (Pap) [5]: n.d. [0]
- Composition of nucleotide incorporated as 5′ neighbor of A: Ap [6]: 0.99 [1]
- Composition of nucleotide incorporated as 5′ neighbor of A: Up [6]: 1.04 [1]
- Composition of nucleotide incorporated as 5′ neighbor of A: Gp (Entry 3, template temp35A-3, Pa 1 mM): 1.96 [2]
- Composition of nucleotide incorporated as 5′ neighbor of A: Cp [7]: n.d. [0]
- Composition of nucleotide incorporated as 5′ neighbor of A: Np (Pap) [7]: n.d. [0]
- Composition of nucleotide incorporated as 5′ neighbor of A: Ap [8]: 0.99 [1]
- Composition of nucleotide incorporated as 5′ neighbor of A: Up [8]: 1.03 [1]
- Composition of nucleotide incorporated as 5′ neighbor of A: Gp (Entry 4, template temp35A-3, Pa 3 mM): 1.97 [2]
- Composition of nucleotide incorporated as 5′ neighbor of A: Np (Pap) [9]: n.d. [0]
- Composition of nucleotide incorporated as 5′ neighbor of A: Up [9]: 0.01 [0]
- Composition of nucleotide incorporated as 5′ neighbor of A: Ap [10]: 1.02 [1]
- Composition of nucleotide incorporated as 5′ neighbor of A: Cp [10]: 1.01 [1]
- Composition of nucleotide incorporated as 5′ neighbor of A: Gp (Entry 5, template temp35G-3, Pa 1 mM): 1.96 [2]
- Composition of nucleotide incorporated as 5′ neighbor of A: Np (Pap) [11]: n.d. [0]
- Composition of nucleotide incorporated as 5′ neighbor of A: Up [11]: 0.01 [0]
- Composition of nucleotide incorporated as 5′ neighbor of A: Ap [12]: 1.01 [1]
- Composition of nucleotide incorporated as 5′ neighbor of A: Cp [12]: 1.00 [1]
- Composition of nucleotide incorporated as 5′ neighbor of A: Gp (Entry 6, template temp35G-3, Pa 3 mM): 1.98 [2]
